Measurements as given in patent US5446157A, “Boron difluoride compounds useful in photodynamic therapy and production of laser light” (priority 1993, dated 1995).
Values joined by “and” are separate entries in the source; they are usually repeats but may differ in a detail not shown here. Equal entries are not always repeated. “Also recorded” adds a separate entry of the source. Structures can show the parent of a compound that is named as a salt.

Experiments:
[1] = UV light absorption (λmax, log ε); assay type: physicochemical; conditions: for log ε: solvent as for λmax (ethanol except where noted)
Protocol: Each recorded UV absorption was restricted to the highest wave length. Fluorescence quantum yields of the dyes were determined for ethanol solutions with excitation at 450 and 460 nm by reference to acridine orange, .PHI.0.46, in ethanol; for the dye 7p the reference was R-6G, <P 0.90. […] Melting points were obtained from a Mel-Temp II device and were uncorrected. The solvent for ^1 H NMR spectra was chloroform-d with tetramethylsilane as an internal standard. Elemental analyses were obtained from Midwest Micro Lab, Indianapolis, Ind. and Galbraith Laboratories, Inc., Knoxville, Tenn. Solvents were removed by rotary evaporation under reduced pressure unless indicated otherwise. Column chromatography was performed on silica gel.
5 × 10^-6 M in ethanol except where noted otherwise.

[2] = Fluorescence (λf, quantum yield); assay type: physicochemical; conditions: for .PHI.f (fluorescence quantum yield): ethanol, excitation 450 and 460 nm, reference acridine orange
Protocol: Instruments for spectroscopic measurements included: Perkin-Elmer 1600 FTIR, Varian Gernini 300 NMR, Hewlett-Packard 5985 (70 eV) GC-MS, Cary 17 (UV), and Perkin-Elmer LS-5B Luminescence spectrometer. A dye laser was constructed and operated in the non-flowing (static) mode and had no tuning capability. […] Laser energy outputs were measured with an accuracy of ±5% by a Scientech 365 power and energy meter.
Light absorption, luminescence, and laser activity properties for the dyes 7 are described in Table VI. Each recorded UV absorption was restricted to the highest wave length. Fluorescence quantum yields of the dyes were determined for ethanol solutions with excitation at 450 and 460 nm by reference to acridine orange, .PHI.0.46, in ethanol; for the dye 7p the reference was R-6G, <P 0.90. Melting points were obtained from a Mel-Temp II device and were uncorrected. The solvent for ^1 H NMR spectra was chloroform-d with tetramethylsilane as an internal standard. Elemental analyses were obtained from Midwest Micro Lab, Indianapolis, Ind. and Galbraith Laboratories, Inc., Knoxville, Tenn. Solvents were removed by rotary evaporation under reduced pressure unless indicated otherwise. Column chromatography was performed on silica gel. Molecular weights were confirmed by EI-MS for the pyrrole 4j 193 and for laser dyes 7d 346, 7e 374, 7g 374, 7i 342, 7j 314 and 7x 360. IR absorption data satisfactorily supported structure assignments for the laser dyes 7.
^[b] 2 × 10^-4 M in ethanol except where noted otherwise.

SMILES	log ε [1]	.PHI.f (fluorescence quantum yield) [2]	λmax ([1]; 5 × 10^-6 M in ethanol) [nm]	λf ([2]; 2 × 10^-4 M in ethanol) [nm]	also measured
CC(=O)NC1=C(C)C2=C(C)c3c(C)c(NC(C)=O)c(C)n3[B-](F)(F)[N+]2=C1C [Compound 7m]	4.63	0.17			λmax ([1]; 5 × 10^-6 M in trifluoroethanol): 498 nm; λf ([2]; 2 × 10^-4 M in trifluoroethanol): 542 nm
CCCC1=C(C)C2=C(C)c3c(C)c(CCC)c(C)n3[B-](F)(F)[N+]2=C1C [Compound 7d, 2,6-Di-n-propyl-1,3,5,7,8-pentamethylpyrromethene-BF2 complex]	4.89	0.99	517	549	
CC1=C(C)C(C)=[N+]2C1=Cc1c(C)c(C)c(C)n1[B-]2(F)F [Compound 7z, 1,2,3,5,6,7-hexamethylpyrromethene-BF2 complex]	4.84	0.56	528	552	absorption shift ([1]; in comparison with 8-substituted peralkylated structures (7b, g, k)): slight bathochromic shift in absorption; fluorescence [2]: erratic effect on fluorescence
CCC1=C(C)C2=C(C#N)c3c(C)c(CC)c(C)n3[B-](F)(F)[N+]2=C1C [Compound 7bb, 1,3,5,7-Tetramethyl-2,6-diethyl-8-cyanopyrromethene-BF2 complex]	4.72	0.55			λmax ([1]; 2 × 10^-4 M in p-dioxan): 580 nm; λf ([2]; 2 × 10^-4 M in p-dioxan): 620 nm
COC1=C(C)C(C)=[N+]2C1=C(C)c1c(OC)c(C)c(C)n1[B-]2(F)F [Compound 7n, 1,7-dimethoxy-2,3,5,6,8-pentamethylpyrromethene-BF2 complex]	4.85	0.84	485	522	
CCC1=C(C)C2=Cc3c(C)c(CC)c(C)n3[B-](F)(F)[N+]2=C1C [Compound 11]					.PHI.f ([2]; solvent not stated): 0.81
CC1=C(c2ccccc2)C(C)=[N+]2C1=C(C)c1c(C)c(-c3ccccc3)c(C)n1[B-]2(F)F [Compound 7l]	4.90	0.43	519	559	
CCOC(=O)C1=C(C)C2=C(C#N)c3c(C)c(C(=O)OCC)c(C)n3[B-](F)(F)[N+]2=C1C [Compound 7aa, diethyl 1,3,5,7-tetramethyl-8-cyanopyrromethene-2,6-dicarboxylate-BF2 complex]	4.98	0.82			λmax ([1]; 2 × 10^-4 M in p-dioxan): 556 nm; λf ([2]; 2 × 10^-4 M in p-dioxan): 589 nm
CCC1=C(C)C2=Cc3c(C)c(CC)c(C)n3[B-](CC)(CC)[N+]2=C1C [Compound 10, 1,3,5,7-tetramethyl-2,6-diethylpyrromethene-B(CH2 CH3)2 complex, reference compound]					.PHI.f ([2]; solvent not stated): 0.31
CC1=[N+]2C(=Cc3c(-c4ccccc4)c(-c4ccccc4)c(C)n3[B-]2(F)F)C(c2ccccc2)=C1c1ccccc1 [Compound 7v, 1,2,6,7-tetraphenyl-3,5-dimethylpyrromethene-BF2 complex]	4.91	0.69	552	590	
CCC1=C(C)C2=C(COC(C)=O)c3c(C)c(CC)c(C)n3[B-](F)(F)[N+]2=C1C [Compound 7r]	4.89	0.74	543	575	
Cc1nc2n(c1C)[B-](F)(F)[n+]1c-2[nH]c(C)c1C [Compound 21-BF3]					.THETA.f ([2]; Lewis acid salt 21-BF3): 0.93; λf ([2]; Lewis acid salt 21-BF3): 377 nm
CC1=C(C(C)C)C(C)=[N+]2C1=C(C)c1c(C)c(C(C)C)c(C)n1[B-]2(F)F [Compound 7f]	4.85	0.67	516	548	
CCC1=C(C)C(=Cc2[nH]c(C)c(CC)c2C)N=C1C [Compound 9, 3,5,3',5'-tetramethyl-4,4'-diethylpyrromethene hydrobromide, reference compound]					.PHI.f ([2]; solvent not stated): 4.3×10^-4
CCCCC1=C(C)C2=C(C)c3c(C)c(CCCC)c(C)n3[B-](F)(F)[N+]2=C1C [Compound 7e]	4.92	0.90	518	550	
CC1=[N+]2C(=Cc3c(-c4ccccc4)cc(C)n3[B-]2(F)F)C(c2ccccc2)=C1 [Compound 7w, 1,7-diphenyl-3,5-dimethylpyrromethene-BF2 complex]	4.92	0.61	521	551	
CCC1=C(C)C2=C(C(C)C)c3c(C)c(CC)c(C)n3[B-](F)(F)[N+]2=C1C [Compound 7p, 1,3,5,7-tetramethyl-2,6-diethyl-8-isopropylpyrromethene-BF2 complex]	4.84		527	562	fluorescence [2]: large reduction in fluorescence; also recorded: absence of fluorescence; .PHI.f ([2]; with reference to R-6G .PHI. 0.90): 0.07
CC1=C(C(C)(C)C)C(C)=[N+]2C1=C(C)c1c(C)c(C(C)(C)C)c(C)n1[B-]2(F)F [Compound 7g]	4.83	0.77	525	567	
CC1=C2C=C3CCCCC3=[N+]2[B-](F)(F)n2c1cc1c2CCCC1 [Compound 7h, 2,3,6,7-bistetramethylene-8-methylpyrromethene-BF2 complex]	> 4.8 and 4.93		535	560	
CCC1=C(C)C2=C(C3CCCCC3)c3c(C)c(CC)c(C)n3[B-](F)(F)[N+]2=C1C [Compound 7q, 1,3,5,7-tetramethyl-2,6-diethyl-8-cyclohexylpyrromethene-BF2 complex]	4.81	0.23	516	526	
CC1=C2C3=C(CCC3)C(C)=[N+]2[B-](F)(F)n2c(C)c3c(c21)CCC3 [Compound 7j, 1,2,6,7-bistrimethylene-3,5,8-trimethylpyrromethene-BF2 complex]	> 4.8 and 4.82		512	535	
CCC1=C(C)C2=C(CC)c3c(C)c(CC)c(C)n3[B-](F)(F)[N+]2=C1C [Compound 7o, 1,3,5,7-tetramethyl-2,6,8-triethylpyrromethene-BF2 complex]	4.92	0.84	520	546	
